Laboratory results: patent US4196217A, “Hydroxylated amines with bacteriostatic activity” (priority 1978, dated 1980)
In brackets after ≈: the same amount, converted by molar mass. Several values for one entry are separate records, joined by “and”; a condition that tells them apart may be missing. Equal values may be shown once. Where a name gives a salt, the structure may show the parent alone. Read-outs that look alike come from different tables or passages of the source.

How the values were obtained:
Staphyloccus aureus = experiment: bacteriostatic activity (MIC), Staphylococcus aureus; type: cell-based
Method: (§1) The medium containing the solution to be tested is inoculated in the form of three single striae with a 10^-5 times dilution of a bacterial culture aged 16 to 18 hours grown in salted peptone broth at a temperature of 37° C.
(§2) After inoculation, the media are stored at 37° C. for 48 hours, after which the bacterial growth is inspected. The MIC (minimum inhibiting concentrations) are expressed in micrograms of pure product per cubic centimeter of gelose medium required for inhibiting the culture (μg/cc). The control substance used is benzalconium chloride.
(§3) Tests were also carried out to determine the bacteriostatic activity of other compounds according to the invention by the method described above and in comparison with known substances, in particular with benzalconium chloride (compound T in the Tables).

Bacillus subtilis = experiment: bacteriostatic activity (MIC), Bacillus subtilis; type: cell-based
Method: as §1, §2, §3

Escherichia coli = experiment: bacteriostatic activity (MIC), Escherichia coli; type: cell-based
Method: as §1, §2, §3

Pseudomonas aeruginosa = experiment: bacteriostatic activity (MIC), Pseudomonas aeruginosa; type: cell-based
Method: as §1, §2, §3

Pneumobacille = experiment: bacteriostatic activity (MIC), Pneumobacille; type: cell-based; conditions: Table I, 37° C., 48 hours
Method: (§4) The medium containing the solution to be tested is inoculated in the form of three single striae with a 10^-5 times dilution of a bacterial culture aged 16 to 18 hours grown in salted peptone broth at a temperature of 37° C. After inoculation, the media are stored at 37° C. for 48 hours, after which the bacterial growth is inspected. The MIC (minimum inhibiting concentrations) are expressed in micrograms of pure product per cubic centimeter of gelose medium required for inhibiting the culture (μg/cc). The control substance used is benzalconium chloride.

Serratia = experiment: bacteriostatic activity (MIC), Serratia; type: cell-based; conditions: Table I, 37° C., 48 hours
Method: as §4

Proteus vulgaris = experiment: bacteriostatic activity (MIC), Proteus vulgaris; type: cell-based; conditions: Table I, 37° C., 48 hours
Method: as §4

Enterbacter cloacae = experiment: bacteriostatic activity (MIC), Enterbacter cloacae; type: cell-based; conditions: Table I, 37° C., 48 hours
Method: as §4

Moraxella glucidolytica = experiment: bacteriostatic activity (MIC), Moraxella glucidolytica; type: cell-based; conditions: Table I, 37° C., 48 hours
Method: as §4

[1] = Staphylococcus aureus, 48 h, Table VI, bacteriostase containing 20% of serum, read-out: M.I.C.
[2] = Staphylococcus aureus, 48 h, Table VI, bacteriostase without serum, read-out: M.I.C.
[3] = Bacillus subtilis, 48 h, Table VI, bacteriostase containing 20% of serum, read-out: M.I.C.
[4] = Bacillus subtilis, 48 h, Table VI, bacteriostase without serum, read-out: M.I.C.
[5] = Escherichia coli, 48 h, Table VI, bacteriostase containing 20% of serum, read-out: M.I.C.
[6] = Escherichia coli, 48 h, Table VI, bacteriostase without serum, read-out: M.I.C.
[7] = Pseudomonas aeruginosa, 48 h, Table VI, bacteriostase containing 20% of serum, read-out: M.I.C.
[8] = Pseudomonas aeruginosa, 48 h, Table VI, bacteriostase without serum, read-out: M.I.C.
[9] = Table I, with 20% of serum, 37° C., 48 hours
[10] = Table I, without serum, 37° C., 48 hours
[11] = Table VI, bacteriostase containing 20% of serum
[12] = Table VI, bacteriostase without serum

CCCCCCCCCCCCOCC(O)CN.Cl (stereo not shown) [Compound 2, 3-dodecyloxy-2-hydroxy-1-aminopropane hydrochloride]
MIC (Staphyloccus aureus; [1]): 75 µg/mL
MIC (Staphyloccus aureus; [2]): 10 µg/mL
MIC (Bacillus subtilis; [3]): 30 µg/mL
MIC (Bacillus subtilis; [4]): 5 µg/mL
MIC (Escherichia coli; [5]): 100 µg/mL
MIC (Escherichia coli; [6]): 20 µg/mL
MIC (Pseudomonas aeruginosa; [7]): 1200 µg/mL
MIC (Pseudomonas aeruginosa; [8]): 800 µg/mL

Br.CCCCCCCCCCOCC(O)CN (stereo not shown) [Compound 3, 3-decyloxy-2-hydroxy-1-aminopropane hydrobromide]
MIC (Staphyloccus aureus; [1]): 75 µg/mL
MIC (Staphyloccus aureus; [2]): 30 µg/mL
MIC (Bacillus subtilis; [3]): 50 µg/mL
MIC (Bacillus subtilis; [4]): 25 µg/mL
MIC (Escherichia coli; [5]): 60 µg/mL
MIC (Escherichia coli; [6]): 30 µg/mL
MIC (Pseudomonas aeruginosa; [7]): 250 µg/mL
MIC (Pseudomonas aeruginosa; [8]): 100 µg/mL

CCCCCCCCC(O)CN (stereo not shown) [Compound 4]
MIC (Staphyloccus aureus; [1]): 150 µg/mL (≈ 866 µM)
MIC (Staphyloccus aureus; [2]): 70 µg/mL (≈ 404 µM)
MIC (Bacillus subtilis; [3]): 75 µg/mL (≈ 433 µM)
MIC (Bacillus subtilis; [4]): 20 µg/mL (≈ 115 µM)
MIC (Escherichia coli; [5]): 200 µg/mL (≈ 1150 µM)
MIC (Escherichia coli; [6]): 125 µg/mL (≈ 721 µM)
MIC (Pseudomonas aeruginosa; [7]): 500 µg/mL (≈ 2890 µM)
MIC (Pseudomonas aeruginosa; [8]): 400 µg/mL (≈ 2310 µM)

CCCCCCCCCCOCC(O)C[N+](C)(C)C (stereo not shown) [Compound 5, 3-decyloxy-2-hydroxy-N,N,N-trimethyl-1-ammonium chloride]
MIC (Staphyloccus aureus; [1]): 50 µg/mL
MIC (Staphyloccus aureus; [2]): 25 µg/mL
MIC (Bacillus subtilis; [3]): 40 µg/mL
MIC (Bacillus subtilis; [4]): 25 µg/mL
MIC (Escherichia coli; [5]): 200 µg/mL
MIC (Escherichia coli; [6]): 125 µg/mL
MIC (Pseudomonas aeruginosa; [7]): 750 µg/mL
MIC (Pseudomonas aeruginosa; [8]): 600 µg/mL
solubility in water (solubility): soluble in water

CCCCCCCCOCC(O)CN.Cl (stereo not shown) [Compound 6, 3-octyloxy-2-hydroxy-1-aminopropane hydrochloride]
MIC (Staphyloccus aureus; [1]): > 250 µg/mL
MIC (Staphyloccus aureus; [2]): > 150 µg/mL
MIC (Bacillus subtilis; [3]): 200 µg/mL
MIC (Bacillus subtilis; [4]): 150 µg/mL
MIC (Escherichia coli; [5]): 300 µg/mL
MIC (Escherichia coli; [6]): 150 µg/mL
MIC (Pseudomonas aeruginosa; [7]): 500 µg/mL
MIC (Pseudomonas aeruginosa; [8]): 300 µg/mL

CCCCCCCCCC(O)CN (stereo not shown) [Compound 7]
MIC (Staphyloccus aureus; [1]): 150 µg/mL (≈ 801 µM)
MIC (Staphyloccus aureus; [2]): 75 µg/mL (≈ 400 µM)
MIC (Bacillus subtilis; [3]): 50 µg/mL (≈ 267 µM)
MIC (Bacillus subtilis; [4]): 30 µg/mL (≈ 160 µM)
MIC (Escherichia coli; [5]): 150 µg/mL (≈ 801 µM)
MIC (Escherichia coli; [6]): 75 µg/mL (≈ 400 µM)
MIC (Pseudomonas aeruginosa; [7]): 500 µg/mL (≈ 2670 µM)
MIC (Pseudomonas aeruginosa; [8]): 200 µg/mL (≈ 1070 µM)

CCCCCCCCCCCC(O)CN (stereo not shown) [Compound 8, 2-hydroxy-1-amino tridecane]
MIC (Staphyloccus aureus; [1]): 40 µg/mL (≈ 186 µM)
MIC (Staphyloccus aureus; [2]): 20 µg/mL (≈ 92.9 µM)
MIC (Bacillus subtilis; [3]): 30 µg/mL (≈ 139 µM)
MIC (Bacillus subtilis; [4]): 3 µg/mL (≈ 13.9 µM)
MIC (Escherichia coli; [5]): 75 µg/mL (≈ 348 µM)
MIC (Escherichia coli; [6]): 10 µg/mL (≈ 46.4 µM)
MIC (Pseudomonas aeruginosa; [7]): > 1500 µg/mL
MIC (Pseudomonas aeruginosa; [8]): > 1000 µg/mL

CCCCCCCCCCCCCCOCC(O)CN (stereo not shown) [Compound 9, 3-tetradecyloxy-2-hydroxyamino-1-propane hydrochloride]
MIC (Staphyloccus aureus; [1]): 50 µg/mL
MIC (Staphyloccus aureus; [2]): 10 µg/mL
MIC (Bacillus subtilis; [3]): 30 µg/mL
MIC (Bacillus subtilis; [4]): 7 µg/mL
MIC (Escherichia coli; [5]): > 1000 µg/mL
MIC (Escherichia coli; [6]): > 500 µg/mL
MIC (Pseudomonas aeruginosa; [7]): 2500 µg/mL
MIC (Pseudomonas aeruginosa; [8]): 1250 µg/mL
solubility in water (solubility): soluble in water

CCCCCCCCCCCCCCCCCCOCC(O)CN.Cl (stereo not shown) [Compound 10, 3-octadecyloxy-2-hydroxy-1-aminopropane hydrochloride]
MIC (Staphyloccus aureus; [1]): > 500 µg/mL
MIC (Staphyloccus aureus; [2]): > 300 µg/mL
MIC (Bacillus subtilis; [3]): > 500 µg/mL
MIC (Bacillus subtilis; [4]): > 300 µg/mL
MIC (Escherichia coli; [5]): > 1000 µg/mL
MIC (Escherichia coli; [6]): > 500 µg/mL
MIC (Pseudomonas aeruginosa; [7]): > 2500 µg/mL
MIC (Pseudomonas aeruginosa; [8]): 1300 µg/mL

COCC(O)CN (stereo not shown) [Compound 11]
MIC (Staphyloccus aureus; [1]): > 500 µg/mL
MIC (Staphyloccus aureus; [2]): > 300 µg/mL
MIC (Bacillus subtilis; [3]): > 500 µg/mL
MIC (Bacillus subtilis; [4]): > 300 µg/mL
MIC (Escherichia coli; [5]): > 1000 µg/mL
MIC (Escherichia coli; [6]): > 500 µg/mL
MIC (Pseudomonas aeruginosa; [7]): > 2500 µg/mL
MIC (Pseudomonas aeruginosa; [8]): > 1300 µg/mL

CCOCC(O)CN.Cl (stereo not shown) [Compound 12, 3-ethoxy-2-hydroxy-1-aminopropane hydrochloride]
MIC (Staphyloccus aureus; [1]): > 500 µg/mL
MIC (Staphyloccus aureus; [2]): > 300 µg/mL
MIC (Bacillus subtilis; [3]): > 500 µg/mL
MIC (Bacillus subtilis; [4]): > 300 µg/mL
MIC (Escherichia coli; [5]): > 1000 µg/mL
MIC (Escherichia coli; [6]): > 500 µg/mL
MIC (Pseudomonas aeruginosa; [7]): > 2500 µg/mL
MIC (Pseudomonas aeruginosa; [8]): > 1300 µg/mL

CCCCCCCCCCOCC(O)CN (stereo not shown) [Compound 13, 3-decyloxy-2-hydroxy-1-aminopropane]
MIC (Staphyloccus aureus; [1]): 80 µg/mL (≈ 346 µM)
MIC (Staphyloccus aureus; [2]): 40 µg/mL (≈ 173 µM)
MIC (Bacillus subtilis; [3]): 40 µg/mL (≈ 173 µM)
MIC (Bacillus subtilis; [4]): 20 µg/mL (≈ 86.4 µM)
MIC (Escherichia coli; [5]): 250 µg/mL (≈ 1080 µM)
MIC (Escherichia coli; [6]): 50 µg/mL (≈ 216 µM)
MIC (Pseudomonas aeruginosa; [7]): 400 µg/mL (≈ 1730 µM)
MIC (Pseudomonas aeruginosa; [8]): 150 µg/mL (≈ 648 µM)

CCCCCCCCCCSCC(O)CN (stereo not shown) [Compound 14, 3-decanethio-2-hydroxy-1-aminopropane hydrochloride]
MIC (Staphyloccus aureus; [1]): 70 µg/mL
MIC (Staphyloccus aureus; [2]): 10 µg/mL
MIC (Bacillus subtilis; [3]): 30 µg/mL
MIC (Bacillus subtilis; [4]): 5 µg/mL
MIC (Escherichia coli; [5]): 250 µg/mL
MIC (Escherichia coli; [6]): 50 µg/mL
MIC (Pseudomonas aeruginosa; [7]): 600 µg/mL
MIC (Pseudomonas aeruginosa; [8]): 200 µg/mL
solubility in alcohol (solubility; alcohol): soluble in alcohol

benzalconium chloride [T, reference compound]
MIC (Staphyloccus aureus; [9]): 12 μg/cc
MIC (Staphyloccus aureus; [10]): 1.5 μg/cc
M.I.C. (Staphyloccus aureus; [11]): 10 μg/cc and 5 μg/cc
M.I.C. (Staphyloccus aureus; [12]): 1.5 μg/cc and 1 μg/cc
MIC (Bacillus subtilis; [9]): 7.5 μg/cc
MIC (Bacillus subtilis; [10]): 2.5 μg/cc
M.I.C. (Bacillus subtilis; [11]): 2.5 μg/cc and 4 μg/cc
M.I.C. (Bacillus subtilis; [12]): 1 μg/cc and 2 μg/cc and 1.5 μg/cc
MIC (Escherichia coli; [9]): 300 μg/cc
MIC (Escherichia coli; [10]): 125 μg/cc
M.I.C. (Escherichia coli; [11]): 200 μg/cc and 250 μg/cc and 300 μg/cc
M.I.C. (Escherichia coli; [12]): 125 μg/cc and 150 μg/cc
MIC (Pseudomonas aeruginosa; [9]): 850 μg/cc
MIC (Pseudomonas aeruginosa; [10]): 600 μg/cc
M.I.C. (Pseudomonas aeruginosa; [11]): 750 μg/cc and 850 μg/cc and 1200 μg/cc and 1000 μg/cc
M.I.C. (Pseudomonas aeruginosa; [12]): 500 μg/cc and 600 μg/cc and 700 μg/cc
MIC (Pneumobacille; with 20% of serum): 75 μg/cc
MIC (Pneumobacille; without serum): 35 μg/cc
MIC (Serratia; with 20% of serum): 30 μg/cc
MIC (Serratia; without serum): 10 μg/cc
MIC (Proteus vulgaris; with 20% of serum): 75 μg/cc
MIC (Proteus vulgaris; without serum): 35 μg/cc
MIC (Enterbacter cloacae; with 20% of serum): 75 μg/cc
MIC (Enterbacter cloacae; without serum): 20 μg/cc
MIC (Moraxella glucidolytica; with 20% of serum): 150 μg/cc
MIC (Moraxella glucidolytica; without serum): 75 μg/cc
